Data reported in US3966715A, “Herbicidal agents” (Bayer Aktiengesellschaft, priority 1966, dated 1976).

Columns and labels:
Format in all cases: in vivo
Wheat [1] = assay: Post-emergence test, wheat; conditions: three weeks
Description: (§1) Solvent: 5 parts by weight acetone
(§2) 1 part by weight benzyloxypolyglycol ether
(§3) To produce a suitable preparation of the particular active compound, 1 part by weight of such active compound is mixed with the stated amount of solvent, the stated amount of emulsifier is then added and the resulting concentrate is thereafter diluted with water to the desired final concentration.
(§4) Test plants which have a height of about 5--15 cm. are sprayed with the preparation of the given active compound until just dew moist. After three weeks, the degree of damage to the plants is determined and characterized by the values 0-5, which have the following meaning:
(§5) The procedure of Example 2 is repeated, and the particular active compounds tested, and amounts applied, and the results obtained can be seen from the following Table 2E: […]

Echinochloa [2] = assay: Pre-emergence test, Echinochloa; conditions: three weeks
Description: as §1, §2, §3
(§6) Seeds of the test plants are sown in normal soil and, after 24 hours, watered with the preparation of the given active compound. It is expedient to keep constant the amount of water per unit area. The concentration of the particular active compound in the preparation is of no importance, only the amount of active compound applied per unit area being decisive. After three weeks, the degree of damage to the test plants is determined and characterized by the values 0-5, which have the following meaning:
(§7) The procedure of Example 1 is repeated, and the particular active compounds tested, the amounts applied, and the results obtained can be seen from the following Table 1D: […]

Cotton [3] = assay: Pre-emergence test, cotton; conditions: three weeks
Description: as §1, §2, §3, §6, §7

Wheat [4] = assay: Pre-emergence test, wheat; conditions: three weeks
Description: as §1, §2, §3, §6, §7

test plants = assay: Post-emergence test, overall; conditions: Example 2
Description: as §1, §2, §3, §4, §5

Chenopodium [5] = assay: Post-emergence test, Chenopodium; conditions: three weeks
Description: as §1, §2, §3, §4, §5

Cotton [6] = assay: Post-emergence test, cotton; conditions: three weeks
Description: as §1, §2, §3, §4, §5

Echinochloa [7] = assay: Post-emergence test, Echinochloa; conditions: three weeks
Description: as §1, §2, §3, §4, §5

Stellaria = assay: Post-emergence test, Stellaria; conditions: three weeks
Description: as §1, §2, §3, §4, §5

Oats [8] = assay: Pre-emergence test, oats; conditions: three weeks
Description: as §1, §2, §3, §6, §7

Chenopodium [9] = assay: Pre-emergence test, Chenopodium; conditions: three weeks
Description: as §1, §2, §3, §6, §7

Oats [10] = assay: Post-emergence test, oats; conditions: three weeks
Description: as §1, §2, §3, §4, §5

Sinapis = assay: Pre-emergence test, Sinapis; conditions: three weeks
Description: as §1, §2, §3, §6, §7

Compound: CN(C)c1nnc(-c2ccccc2)c(=O)n1N [Compound 16, 3-dimethylamino-4-amino-6-phenyl-1,2,4-triazine-5-one]
- degree of damage, Wheat (Wheat [1]; 1.2 Kg/hectare): 4-5
- degree of damage, Echinochloa (Echinochloa [2]; 1.25 kg/hectare): 4-5
- degree of damage, Cotton (Cotton [3]; 2.5 kg/hectare): 4-5
- degree of damage, Wheat (Wheat [4]; 1.25 kg/hectare): 4-5
- degree of damage, Wheat (Wheat [4]; 2.5 kg/hectare): 4-5
- degree of damage, Wheat (Wheat [4]; 5 kg/hectare): 4-5

Compound: CSc1nnc(C(C)C)c(=O)n1N [Compound 21, 3-methylthio-4-amino-6-isopropyl-1,2,4-triazine-5-one]
- degree of damage, Wheat (Wheat [1]; 0.01 % active compound): 4-5
- kind of herbicidal action (test plants): pronouncedly total-herbicidal action

Compound: C=CCNc1nnc(-c2ccccc2)c(=O)n1N [Compound 26, 3-allylamino-4-amino-6-phenyl-1,2,4-triazine-5-one]
- kind of herbicidal action (test plants): pronouncedly selective-herbicidal action in wheat and carrots
- degree of damage, Chenopodium (Chenopodium [5]; 0.6 Kg/hectare): 4-5
- degree of damage, Echinochloa (Echinochloa [2]; 5 kg/hectare): 4-5

Compound: CSc1nnc(-c2ccccc2)c(=O)n1N=Cc1ccccn1 [Compound 28, 3-methylthio-4-(pyrid-2'-yl-methylidene-amino)-6-phenyl-1,2,4-triazine-5-one]
- kind of herbicidal action (test plants): pronouncedly selective-herbicidal action in snap beans and wheat

Compound: CCCCNc1nnc(-c2ccccc2)c(=O)n1N [Compound 100a, 3-n-butylamino-4-amino-6-phenyl-1,2,4-triazine-5-one]
- degree of damage, Wheat (Wheat [1]; 10 Kg/hectare): 2-3
- degree of damage, Cotton (Cotton [6]; 10 Kg/hectare): 2-3
- degree of damage, Echinochloa (Echinochloa [7]; 10 Kg/hectare): 2-3

Compound: Nn1c(NCc2ccccc2)nnc(-c2ccccc2)c1=O [Compound 102a, 3-benzylamino-4-amino-6-phenyl-1,2,4-triazine-5-one]
- degree of damage, Cotton (Cotton [6]; 10 Kg/hectare): 2-3

Compound: CSc1nnc(C2CCCCO2)c(=O)n1N (stereo not shown) [Compound 163, 3-methylthio-4-amino-6-(tetrahydropyran-2'-yl)-1,2,4-triazine-5-one]
- degree of damage, Wheat (Wheat [1]; 0.6 Kg/hectare): 3-4
- degree of damage, Wheat (Wheat [1]; 1.2 Kg/hectare): 4-5
- degree of damage, Chenopodium (Chenopodium [5]; 0.6 Kg/hectare): 4-5
- degree of damage, Echinochloa (Echinochloa [7]; 2.4 Kg/hectare): 4-5

Compound: C=CCNc1nnc(C(C)C)c(=O)n1N [Compound 179, 3-(α-allylamino)-4-amino-6-isopropyl-1,2,4-triazine-5-one]
- degree of damage, Chenopodium (Chenopodium [5]; 0.6 Kg/hectare): 4-5
- degree of damage, Stellaria (Stellaria; 1.2 Kg/hectare): 4-5

Compound: CSc1nnc(C2CCCCC2)c(=O)n1NC(O)C(Cl)(Cl)Cl (stereo not drawn) [Compound 193, 3-methylthio-4-(β-trichloro-α-hydroxy-ethyl)-amino-6-cyclohexyl-1,2,4-triazine-5-one]
- degree of damage, Wheat (Wheat [1]; 2.4 Kg/hectare): 4-5
- degree of damage, Oats (Oats [8]; 2.5 kg/hectare): 4-5
- degree of damage, Chenopodium (Chenopodium [9]; 2.5 kg/hectare): 4-5
- degree of damage, Oats (Oats [10]; 1.2 Kg/hectare): 4-5
- degree of damage, Wheat (Wheat [4]; 5 kg/hectare): 4-5

Compound: CSc1nnc(C(C)C)c(=O)n1N=C(C)C [Compound 194, 3-methylthio-4-(prop-2'-ylidene-amino)-6-isopropyl-1,2,4-triazine-5-one]
- degree of damage, Wheat (Wheat [1]; 1.2 Kg/hectare): 4-5
- degree of damage, Wheat (Wheat [1]; 2.4 Kg/hectare): 4-5
- degree of damage, Cotton (Cotton [6]; 0.6 Kg/hectare): 4-5
- degree of damage, Cotton (Cotton [3]; 1.25 kg/hectare): 4-5
- degree of damage, Wheat (Wheat [4]; 1.25 kg/hectare): 4-5

Compound: COc1ccc(C=Nn2c(SC)nnc(C(C)C)c2=O)cc1 [Compound 207, 3-methylthio-4-(4'-methoxy-benzylidene-amino)-6-isopropyl-1,2,4-triazine-5-one]
- degree of damage, Wheat (Wheat [1]; 1.2 Kg/hectare): 3-4
- degree of damage, Wheat (Wheat [1]; 2.4 Kg/hectare): 3-4
- degree of damage, Oats (Oats [8]; 5 kg/hectare): 4-5
- degree of damage, Oats (Oats [10]; 2.4 Kg/hectare): 4-5
- degree of damage, Cotton (Cotton [6]; 0.6 Kg/hectare): 4-5
- degree of damage, Cotton (Cotton [3]; 5 kg/hectare): 4-5
- degree of damage, Wheat (Wheat [4]; 5 kg/hectare): 4-5

Compound: CSc1nnc(C(C)C)c(=O)n1N=Cc1cccc([N+](=O)[O-])c1 [Compound 209, 3-methylthio-4-(3'-nitro-benzylidene-amino)-6-isopropyl-1,2,4-triazine-5-one]
- degree of damage, Oats (Oats [8]; 2.5 kg/hectare): 4-5
- degree of damage, Oats (Oats [8]; 5 kg/hectare): 4-5
- degree of damage, Chenopodium (Chenopodium [9]; 1.25 kg/hectare): 4-5
- degree of damage, Chenopodium (Chenopodium [9]; 2.5 kg/hectare): 4-5
- degree of damage, Oats (Oats [10]; 2.4 Kg/hectare): 4-5
- degree of damage, Cotton (Cotton [3]; 1.25 kg/hectare): 4-5
- degree of damage, Cotton (Cotton [3]; 2.5 kg/hectare): 4-5
- degree of damage, Cotton (Cotton [3]; 5 kg/hectare): 4-5

Compound: CSc1nnc(C(C)C)c(=O)n1N=Cc1ccc(C)cc1 [Compound 213, 3-methylthio-4-(4'-methyl-benzylidene-amino)-6-isopropyl-1,2,4-triazine-5-one]
- degree of damage, Wheat (Wheat [1]; 0.6 Kg/hectare): 2-3
- degree of damage, Wheat (Wheat [1]; 1.2 Kg/hectare): 3-4
- degree of damage, Oats (Oats [8]; 1.25 kg/hectare): 4-5
- degree of damage, Oats (Oats [8]; 2.5 kg/hectare): 4-5
- degree of damage, Oats (Oats [10]; 1.2 Kg/hectare): 3-4
- degree of damage, Oats (Oats [10]; 2.4 Kg/hectare): 4-5
- degree of damage, Echinochloa (Echinochloa [7]; 0.6 Kg/hectare): 4-5
- degree of damage, Echinochloa (Echinochloa [2]; 1.25 kg/hectare): 4-5
- degree of damage, Cotton (Cotton [3]; 2.5 kg/hectare): 4-5
- degree of damage, Cotton (Cotton [3]; 5 kg/hectare): 4-5
- degree of damage, Stellaria (Stellaria; 0.6 Kg/hectare): 4-5

Compound: CSc1nnc(C(C)C)c(=O)n1N=CC(C)C [Compound 214, 3-methylthio-4-(isobutylidene-amino)-6-isopropyl-1,2,4-triazine-5-one]
- degree of damage, Oats (Oats [10]; 0.6 Kg/hectare): 4-5
- degree of damage, Cotton (Cotton [6]; 0.6 Kg/hectare): 4-5
- degree of damage, Cotton (Cotton [6]; 1.2 Kg/hectare): 4-5
- degree of damage, Wheat (Wheat [4]; 2.5 kg/hectare): 4-5

Compound: CSc1nnc(C2CCCCC2)c(=O)n1N=Cc1ccccc1 [Compound 225, 3-methylthio-4-(benzylidene-amino)-6-cyclohexyl-1,2,4-triazine-5-one]
- degree of damage, Wheat (Wheat [1]; 0.6 Kg/hectare): 3-4
- degree of damage, Oats (Oats [10]; 2.4 Kg/hectare): 4-5
- degree of damage, Echinochloa (Echinochloa [7]; 0.6 Kg/hectare): 4-5
- degree of damage, Echinochloa (Echinochloa [2]; 1.25 kg/hectare): 4-5
- degree of damage, Cotton (Cotton [3]; 2.5 kg/hectare): 4-5

Compound: CSc1nnc(C2CCCCC2)c(=O)n1N=Cc1ccco1 [Compound 226, 3-methylthio-4-(furfur-2'-ylidene-amino)-6-cyclohexyl-1,2,4-triazine-5-one]
- degree of damage, Oats (Oats [8]; 5 kg/hectare): 4-5
- degree of damage, Oats (Oats [10]; 2.4 Kg/hectare): 4-5
- degree of damage, Cotton (Cotton [6]; 2.4 Kg/hectare): 4-5
- degree of damage, Echinochloa (Echinochloa [2]; 2.5 kg/hectare): 4-5
- degree of damage, Cotton (Cotton [3]; 5 kg/hectare): 3-4

Compound: CSc1nnc(C2CCCCC2)c(=O)n1N=C1CCCCC1 [Compound 227, 3-methylthio-4-(cyclohexylidene-amino)-6-cyclohexyl-1,2,4-triazine-5-one]
- degree of damage, Wheat (Wheat [1]; 2.4 Kg/hectare): 4-5
- degree of damage, Sinapis (Sinapis; 1.25 kg/hectare): 4-5
- degree of damage, Chenopodium (Chenopodium [5]; 2.4 Kg/hectare): 4-5
- degree of damage, Echinochloa (Echinochloa [2]; 1.25 kg/hectare): 4-5
- degree of damage, Wheat (Wheat [4]; 2.5 kg/hectare): 4-5
- degree of damage, Wheat (Wheat [4]; 5 kg/hectare): 4-5
- degree of damage, Stellaria (Stellaria; 2.4 Kg/hectare): 4-5

Compound: CSc1nnc(C2CCCCC2)c(=O)n1N=CC(C)C [Compound 229, 3-methylthio-4-(isobutylidene-amino)-6-cyclohexyl-1,2,4-triazine-5-one]
- degree of damage, Oats (Oats [8]; 2.5 kg/hectare): 4-5
- degree of damage, Echinochloa (Echinochloa [2]; 1.25 kg/hectare): 4-5
- degree of damage, Cotton (Cotton [3]; 5 kg/hectare): 4-5
- degree of damage, Wheat (Wheat [4]; 5 kg/hectare): 4-5

Compound: CNc1nnc(C(C)(C)C)c(=O)n1N=Cc1ccccc1 [Compound 230, 3-methylamino-4-(benzylidene-amino)-6-tert.-butyl-1,2,4-triazine-5-one]
- degree of damage, Sinapis (Sinapis; 2.5 kg/hectare): 4-5
- degree of damage, Oats (Oats [8]; 5 kg/hectare): 4-5
- degree of damage, Chenopodium (Chenopodium [9]; 2.5 kg/hectare): 4-5
- degree of damage, Oats (Oats [10]; 2.4 Kg/hectare): 4-5
- degree of damage, Echinochloa (Echinochloa [7]; 1.2 Kg/hectare): 4-5
- degree of damage, Echinochloa (Echinochloa [7]; 2.4 Kg/hectare): 4-5
- degree of damage, Echinochloa (Echinochloa [2]; 2.5 kg/hectare): 4-5
- degree of damage, Echinochloa (Echinochloa [2]; 5 kg/hectare): 4-5
- degree of damage, Cotton (Cotton [3]; 5 kg/hectare): 4-5
- degree of damage, Wheat (Wheat [4]; 5 kg/hectare): 4-5
- degree of damage, Stellaria (Stellaria; 0.6 Kg/hectare): 4-5

Compound: CNc1nnc(C(C)(C)C)c(=O)n1N=Cc1ccc(Cl)cc1 [Compound 233, 3-methylamino-4-(4'-chloro-benzylidene-amino)-6-tert.-butyl-1,2,4-triazine-5-one]
- degree of damage, Wheat (Wheat [1]; 0.6 Kg/hectare): 4-5
- degree of damage, Wheat (Wheat [1]; 1.2 Kg/hectare): 4-5
- degree of damage, Oats (Oats [10]; 1.2 Kg/hectare): 4-5
- degree of damage, Oats (Oats [10]; 2.4 Kg/hectare): 4-5
- degree of damage, Cotton (Cotton [6]; 2.4 Kg/hectare): 4-5
- degree of damage, Echinochloa (Echinochloa [2]; 5 kg/hectare): 4-5
